Test [1] relates to MCF-7 human breast cancer cells. Put plainly: MTT cell viability, MCF-7. The conditions noted are these: MCF7, 72 h exposure, mean ± SD, read-out: Antiproliferative activity IC50, MCF-7. In kind it is cell-based. An excerpt:
(§1) The six cell lines used in this work were purchased from American Type Culture Collection (ATCC, Manassas, VA). MCF-7 human breast cancer cells, oestrogen receptor (ER) positives, were maintained in Dulbecco’s Modified Eagle’s Medium/Nutrient Mixture F-12 Ham (DMEM/F12), supplemented with 5% foetal bovine serum (FBS) and 100 U/ml penicillin/streptomycin, as previously described. MDA-MB-231, human breast cancer cells, oestrogen receptor (ER) negative, were maintained in Dulbecco’s Modified Eagle’s Medium/Nutrient Mixture F-12 Ham (DMEM/F12), supplemented with 5% Newborn Calf Serum (NCS) and 100 U/ml penicillin/streptomycin. HeLa human epithelial cervix carcinoma cells, oestrogen receptor (ER) negative, and ISHIKAWA human endometrial adenocarcinoma cell, oestrogen receptor positive, were maintained in minimum essential medium (MEM), supplemented with 10% FBS, 100 U/ml penicillin/streptomycin and 1% non-essential amino acid. 3T3-L1 cells line of murine fibroblasts of embryonic type, were maintained in DMEM, supplemented with 10% NCS and 100 U/ml penicillin/streptomycin. MCF-10A human mammary epithelial cells were cultured in DMEM/F12 medium, supplemented with 5% horse serum (HS) (Eurobio, Les Ullis, Cedex, France), 100 U/ml penicillin/streptomycin, […] hydrocortisone, 20 ng/ml hEGF (human epidermal growth factor), 10 μg/ml insulin and […] cholera enterotoxin (Sigma-Aldrich, Milano, Italy). Cells were maintained at 37 °C in a humidified atmosphere of 95% air and 5% CO2 and periodically screened for contamination.
(§2) MDA-MB-231, MCF-7, HeLa and ISHIKAWA cells were grown in complete medium and, before being treated, they were serum deprived for 24 h, to allow cell cycle synchronisation. Then cells were grown in phenol red-free medium supplemented with 1% DCC (destran-coated charcoal treated) FBS, then treated with increasing concentrations (0.1, 1, 10, 20, 40, 100 µM) of each compound for 72 h. Compounds were dissolved in dimethylsulphoxide (DMSO) (Sigma, St. Louis, MO) and diluted in each cell medium. Untreated cells, used as a control, were added with DMSO alone (final concentration 0.1%). Cell viability was assessed using the 3-[4,5-dimethylthiazol-2-yl]-2,5-diphenyltetrazolium bromide reagent (MTT), according to the protocol from manufacturer (Sigma-Aldrich, Milan, Italy), as previously described[37] ^, [38]. For each sample, the mean absorbance, measured at 570 nm, was expressed as a percentage of the control and plotted versus drug concentration to determine for each cell line the IC50 values (namely, drugs concentrations able to reduce cell viability of 50% with respect to the control), using GraphPad Prism 5 Software (GraphPad Inc., San Diego, CA)[39]. Each experiment was carried out in quadruplicate. Standard deviations (SD) were shown.

For test [2], the system named is ISHIKAWA human endometrial adenocarcinoma cells. Description: MTT cell viability, ISHIKAWA
To be noted: 72 h exposure, mean ± SD, read-out: Antiproliferative activity IC50, ISHIKAWA
In kind it is cell-based.
From the text: as §1, §2

Test [3] has as its system HeLa human epithelial cervix carcinoma cells. Description: MTT cell viability, HeLa. In kind it is cell-based. The conditions noted are these: 72 h exposure, mean ± SD, read-out: Antiproliferative activity IC50, HeLa.
From the text: as §1, §2

The test system of test [4] is MCF-10A human mammary epithelial cells. Put plainly: MTT cell viability, MCF-10A. In kind it is cell-based. To be noted: non-tumoural cells, 72 h exposure, mean ± SD, read-out: Antiproliferative activity IC50, MCF-10a.
From the text: as §1, §2

A further test deals with T1, hTopoI (Homo sapiens, UniProt P11387).
T1 sequence (P11387 1-765): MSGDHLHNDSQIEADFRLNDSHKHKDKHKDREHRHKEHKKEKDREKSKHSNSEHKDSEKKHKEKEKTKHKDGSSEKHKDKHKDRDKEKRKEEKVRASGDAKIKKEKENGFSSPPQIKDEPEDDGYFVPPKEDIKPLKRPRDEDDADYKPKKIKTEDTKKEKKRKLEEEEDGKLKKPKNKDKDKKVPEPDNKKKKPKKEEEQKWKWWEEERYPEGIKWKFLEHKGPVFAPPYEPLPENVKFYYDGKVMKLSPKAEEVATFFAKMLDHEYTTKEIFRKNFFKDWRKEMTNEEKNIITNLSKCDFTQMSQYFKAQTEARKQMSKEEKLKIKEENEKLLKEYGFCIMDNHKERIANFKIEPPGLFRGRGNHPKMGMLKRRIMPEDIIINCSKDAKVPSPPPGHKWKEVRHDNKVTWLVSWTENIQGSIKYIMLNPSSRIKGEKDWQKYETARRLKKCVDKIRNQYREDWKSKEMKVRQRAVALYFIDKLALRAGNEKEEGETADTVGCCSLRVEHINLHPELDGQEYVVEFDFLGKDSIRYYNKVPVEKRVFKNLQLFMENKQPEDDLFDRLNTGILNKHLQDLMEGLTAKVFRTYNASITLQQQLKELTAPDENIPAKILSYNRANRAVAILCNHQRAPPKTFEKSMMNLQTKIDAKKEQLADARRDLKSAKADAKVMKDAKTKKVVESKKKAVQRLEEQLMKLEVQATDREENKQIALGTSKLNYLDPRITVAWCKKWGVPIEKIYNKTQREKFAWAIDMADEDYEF
Description: Human topoisomerase I relaxation assay. In kind it is biochemical. To be noted: direct in vitro assay, data not shown. The protocol:
Human topoisomerase I relaxation assay: hTopoI relaxation assays were performed as reported in Iacopetta et al.[8].

In a further test the target is hTopoII (Homo sapiens, UniProt P11388). Description: Human topoisomerase II decatenation assay. To be noted: 10 µM. The format is biochemical. The protocol: Human topoisomerase II decatenation assay: hTopoII decatenation assays were performed as reported in Iacopetta et al.[8].
Chain of hTopoII (P11388 whole entry): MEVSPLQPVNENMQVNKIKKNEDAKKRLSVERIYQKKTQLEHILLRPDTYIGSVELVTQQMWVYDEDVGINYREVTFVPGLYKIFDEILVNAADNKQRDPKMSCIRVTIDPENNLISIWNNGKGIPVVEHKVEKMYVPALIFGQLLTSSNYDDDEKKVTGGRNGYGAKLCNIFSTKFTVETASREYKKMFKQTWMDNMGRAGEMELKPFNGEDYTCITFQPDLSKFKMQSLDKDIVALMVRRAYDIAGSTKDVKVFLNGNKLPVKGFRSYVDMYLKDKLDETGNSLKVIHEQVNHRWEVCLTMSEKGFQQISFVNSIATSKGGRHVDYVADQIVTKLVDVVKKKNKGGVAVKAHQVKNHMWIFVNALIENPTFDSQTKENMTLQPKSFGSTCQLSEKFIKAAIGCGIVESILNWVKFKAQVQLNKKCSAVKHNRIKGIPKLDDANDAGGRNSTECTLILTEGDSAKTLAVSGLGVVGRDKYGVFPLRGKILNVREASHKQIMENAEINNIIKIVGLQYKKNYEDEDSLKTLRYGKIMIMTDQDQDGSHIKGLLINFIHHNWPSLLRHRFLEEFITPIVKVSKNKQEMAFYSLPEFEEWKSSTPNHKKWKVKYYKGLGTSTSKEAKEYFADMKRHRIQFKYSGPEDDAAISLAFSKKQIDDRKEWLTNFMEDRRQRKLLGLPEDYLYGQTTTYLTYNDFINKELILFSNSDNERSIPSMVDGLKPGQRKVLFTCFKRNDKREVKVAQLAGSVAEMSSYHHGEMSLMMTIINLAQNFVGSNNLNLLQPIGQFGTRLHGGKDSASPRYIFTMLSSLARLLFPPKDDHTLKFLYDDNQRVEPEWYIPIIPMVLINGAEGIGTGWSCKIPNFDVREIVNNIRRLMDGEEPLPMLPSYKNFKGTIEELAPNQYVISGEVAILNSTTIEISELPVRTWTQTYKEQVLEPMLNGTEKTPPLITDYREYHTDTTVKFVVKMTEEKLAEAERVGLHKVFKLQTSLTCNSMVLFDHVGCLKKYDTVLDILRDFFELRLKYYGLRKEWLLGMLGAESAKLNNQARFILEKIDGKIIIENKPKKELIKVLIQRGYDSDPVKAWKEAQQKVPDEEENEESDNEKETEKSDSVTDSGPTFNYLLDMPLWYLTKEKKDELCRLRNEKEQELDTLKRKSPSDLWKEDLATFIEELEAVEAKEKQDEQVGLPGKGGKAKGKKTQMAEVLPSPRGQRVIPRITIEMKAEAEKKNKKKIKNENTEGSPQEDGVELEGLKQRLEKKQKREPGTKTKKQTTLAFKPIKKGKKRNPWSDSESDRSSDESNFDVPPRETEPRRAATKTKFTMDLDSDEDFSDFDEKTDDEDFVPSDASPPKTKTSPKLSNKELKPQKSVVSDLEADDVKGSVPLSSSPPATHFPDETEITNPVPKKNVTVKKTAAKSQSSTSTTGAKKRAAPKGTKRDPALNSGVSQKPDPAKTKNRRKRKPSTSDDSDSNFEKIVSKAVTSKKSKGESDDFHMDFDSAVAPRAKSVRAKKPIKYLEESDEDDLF
Figure 2. hTopoII inhibition assay. kDNA was incubated with human Topoisomerase II in the absence (lane C, vehicle DMSO) or presence of compound 5c (lane 5c) or Ellipticine (lane E) at 10 and 50 µM, respectively. Lane K, kinetoplast DNA (kDNA).

The test system of a further test is caspase-8. Description: Caspase-Glo assay, caspase-8. In kind it is cell-based, human. The conditions noted are these: HeLa cells, concentration equal to IC50, 24 h. The protocol: (§3) Caspases-3/7, -8 and -9 activities were measured with the Caspase-Glo Assay, according to the guidelines of manufacturer (Caspase-Glo® 3/7, 8 and 9 Assay Systems, Promega Corporation, Madison, WI) as described in Iacopetta et al.[43].

Another test relates to caspases 3 and 7. Description: Caspase-Glo assay, caspases 3/7. To be noted: HeLa cells, concentration equal to IC50, 24 h. The format is cell-based, human. The protocol: as §3

One compound from article PMC6010102, “N-thioalkylcarbazoles derivatives as new anti-proliferative agents: synthesis, characterisation and molecular mechanism evaluation” (Journal of Enzyme Inhibition and Medicinal Chemistry, 2018) can be followed below.

By IC50 is commonly meant the concentration at which inhibition is half-maximal.

Turning to `Cc1ccc(C)c2c1c1cc(Br)ccc1n2CCCCCCCS` [5c, 7-(6-Bromo-1,4-dimethyl-9H-carbazol-9-yl)-heptane-1-thiol], the half-inhibitory concentration (IC50) in test [1] is 54.9 ± 1 µM; in test [2], 15.7 ± 0.95 µM; in test [3], 11.3 ± 0.63 µM; in test [4] it was > 100 µM. At hTopoI, the hTopoI inhibition entry was “no inhibition”. In addition, the “hTopoII inhibition (kDNA decatenation)” value on hTopoII is “able to inhibit hTopoII activity”. For the same compound, the caspase-8 activity entry in the test with caspase-8 was “no increase of caspase-8 activity”. In addition, the “caspases 3 and 7 activity” value in the test on caspases 3 and 7 was “clear increase of caspases 3 and 7 activity”.
